Experimental findings from patent US9981968B2, “Substituted pyrrolo[2,3-d]pyrimidines for the treatment of cancer and proliferative disorders” (Northwestern University, priority 2013, dated 2018) are described below.

Assay [1] deals with acute leukemia cell lines (THP-1, K562, Kasumi-1, and U937). The experiment in a line: Inhibition of viability of acute leukemia cell lines. The class given is cell-based, human. The following applies: THP-1, K562, Kasumi-1, U937. The protocol: Compounds 381, 383, 409 (as test compounds) and Compound 501 (as a negative control) were administered to a variety of acute leukemia cell lines (THP-1. K562, Kasumi-1, and U937) in order to test their ability to inhibit cell growth as compared to 8-amino adenosine (8NH2-Ado) and 8-chloro adenosine (8Cl-Ado) (as positive controls) as in the previous Examples.

In the next assay the test system is U937 cell lines. Kind of assay: Immunoblot of PARP cleavage and cleaved caspase 3. It counts as cell-based, human. To be noted: U937 cell lysates, FIG. 17. The protocol: FIG. 17. Immunoblot of cell lysates from U937 cell lines treated with Compounds 381, 383, 409 (as test compounds) and Compound 501 (as a negative control) as compared to 8-amino adenosine (8NH2-Ado) and 8-chloro adenosine (8Cl-Ado) (as positive controls). The impact of the compounds on proteins associated with cell death was assessed via performing an immunoblot. (See FIG. 17). PARP cleavage indicated activation of the caspase cascade and cell death by induction of apoptosis. Similarly detection of cleaved caspase 3 indicated activation of caspase activity and cell death by apoptosis. GAPDH was included as a loading control to indicate approximately equal loading of protein.
A general note: A western blot detects proteins with antibodies after separation by electrophoresis.

Molecules are shown by their SMILES.

As to `FC(F)(F)c1cn(CC2CCNCC2)c2ncnc(Cl)c12` [NUCC-0000381], in assay [1] (FIGS. 11-14), the cell viability entry was “reduce cell viability significantly”. In assay [1] (versus 8NH2-Ado and 8Cl-Ado), the “inhibitory activity relative to positive controls” value is “inhibitory activities approaching those of 8NH2-Ado and 8Cl-Ado”. Also, the “induction of apoptosis (PARP cleavage, cleaved caspase 3)” value with U937 cell lines is listed as “Induction of apoptosis was observed”.
